Values of other authors as cited in patent publication US7018649B2 (Euro-Celtique, S.A., priority 2000, dated 2006).

Columns and labels:
[1] = in vivo
[2] = not given; remark: listed apart in the source
[3] = test system: plasma-protein

time to mean peak concentrations (after administration): 2.5 to 5 h
excretion in the feces (after metabolism): 10%
excretion in the urine (after metabolism): 70%
onset of antihypertensive activity (following administration): 2 to 5 h
plasma concentration at steady state (in vivo): 2 ng/mL
bioavailability (oral dose, gastrointestinal absorption): approximately 20%
solubility in dichloromethane and ethanol ([2]; dichloromethane and ethanol): freely soluble
solubility in water ([2]; water): not soluble
plasma-protein bound [3]: 99%
Structure (SMILES): CCOC(=O)C1=C(C)NC(C)=C(C(=O)OC)C1c1cccc(Cl)c1Cl (racemic) [felodipine, 4-(2,3-dichlorophenyl)-1,4-dihydro-2,6-dimethyl-3,5-pyridinedicarboxylate]
most common adverse side effects [1]: peripheral edema and headaches
